Values quoted from earlier work in patent US20240170108A1, “METHOD AND SYSTEM FOR GENE EXPRESSION PREDICTION-BASED SCREENING OF DRUG-LIKE MOLECULES” (Tata Consultancy Services Limited, priority 2022, published 2024).

Tested on: VCAP cell line
Details: 10 μM concentration dose, 6 hrs of exposure

In the case of `O=c1cc(-c2ccc(O)cc2)oc2cc(O[C@@H]3O[C@H](CO)[C@@H](O)[C@H](O)[C@H]3O)cc(O)c12` [Cosmosiin], the “Characteristic Direction, APP (Gene ID 351)” value (gene APP) is listed as −0.0047, the “Characteristic Direction, ARHGEF12 (Gene ID 23365)” value (gene ARHGEF12) is listed as −0.0376 and the “Characteristic Direction, ASAH1 (Gene ID 427)” value (gene ASAH1) is listed as −0.0172. For the same molecule, the “Characteristic Direction, ATF1 (Gene ID 466)” value (gene ATF1) was −0.0167, the “Characteristic Direction, BRCA1 (Gene ID 672)” value (gene BRCA1) was −0.0305 and the “Characteristic Direction, CSNK1A1 (Gene ID 1452)” value (gene CSNK1A1) was −0.0011. For the same molecule, the “Characteristic Direction, EED (Gene ID 8726)” value (gene EED) was −0.0170, the “Characteristic Direction, EGF (Gene ID 1950)” value (gene EGF) was 0.0114 and the “Characteristic Direction, ETV1 (Gene ID 2115)” value (gene ETV1) was −0.0108. The “Characteristic Direction, FOXO3 (Gene ID 2309)” value (gene FOXO3) was −0.0187, the “Characteristic Direction, HLA-DMA (Gene ID 3108)” value (gene HLA-DMA) was −0.0178 and the “Characteristic Direction, IL1B (Gene ID 3553)” value (gene IL1B) was 0.0082. For the same molecule, the “Characteristic Direction, NFATC4 (Gene ID 4776)” value (gene NFATC4) was −0.0087, the “Characteristic Direction, NOS3 (Gene ID 4846)” value (gene NOS3) was 0.0363 and the “Characteristic Direction, PSMD4 (Gene ID 5710)” value (gene PSMD4) was −0.0161. For the same molecule, the “Characteristic Direction, PSME1 (Gene ID 5720)” value (gene PSME1) was −0.0142, the “Characteristic Direction, RALA (Gene ID 5898)” value (gene RALA) was 0.0206 and the “Characteristic Direction, RHEB (Gene ID 6009)” value (gene RHEB) was 0.0037. The “Characteristic Direction, RHOA (Gene ID 387)” value (gene RHOA) was −0.0166, the “Characteristic Direction, SERPINE1 (Gene ID 5054)” value (gene SERPINE1) was −0.0407 and the “Characteristic Direction, SOX2 (Gene ID 6657)” value (gene SOX2) was 0.0276. The “Characteristic Direction, TBP (Gene ID 6908)” value (gene TBP) was −0.0084 and the “Characteristic Direction, TERT (Gene ID 7015)” value (gene TERT) was 0.0054.
